Results: patent publication US7772252B2, “Heterocyclic substituted carbonyl derivatives and their use as dopamine D3 receptor ligands” (Aventis Pharmaceuticals Inc., priority 2001, dated 2010)
Where two headings read alike, the source gives them in different places.

Key:
[1] = biological target: T1, cloned human alpha-1A adrenergic receptors (α1a) (Homo sapiens, UniProt P35348); experiment: [3H]Prazosin binding to cloned human alpha-1A adrenergic receptors expressed in CHO cells; details: read-out: halpha1Ki (nM) h = human
T1 construct: expressed in transfected cells; membranes
T1 sequence (P35348 1-466): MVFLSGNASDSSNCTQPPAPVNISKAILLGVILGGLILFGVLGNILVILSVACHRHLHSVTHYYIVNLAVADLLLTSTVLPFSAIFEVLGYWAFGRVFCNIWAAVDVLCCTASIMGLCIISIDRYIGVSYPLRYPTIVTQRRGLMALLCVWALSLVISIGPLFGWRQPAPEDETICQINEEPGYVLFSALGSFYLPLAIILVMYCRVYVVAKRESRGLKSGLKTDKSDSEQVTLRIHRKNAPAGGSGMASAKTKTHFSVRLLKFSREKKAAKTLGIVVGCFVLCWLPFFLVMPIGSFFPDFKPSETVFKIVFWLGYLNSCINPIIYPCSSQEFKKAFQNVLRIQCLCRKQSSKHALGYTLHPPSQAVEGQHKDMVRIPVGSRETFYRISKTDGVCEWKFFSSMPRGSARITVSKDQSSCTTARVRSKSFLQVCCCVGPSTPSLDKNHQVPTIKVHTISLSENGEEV
Text: ^3H]Prazosin Binding to Cloned Human Alpha-1A Adrenergic Receptors (α1a) Expressed in Chinese Hamster Ovary Cells (CHO)
• Purpose: This in vitro assay is designed as a screen to identify compounds displaying a affinity for the human α1a adrenoceptor subtype expressed in the membrane fragments of CHO cells. The assay measures the ability of the test compounds to displace [^3H] prazosin from α1a sites. • The identification of multiple vascular α1-addrenoceptors (α1a, α1b, α1d) in vitro has provided impetus to define the role(s) of these subtypes in cardiovascular regulation in vivo (Vargas and Gorman, 1995). […] Prazosin is a potent antagonist of the human α1a-adrenoceptor subtype, which has been cloned and is expressed in the membrane fragments of CHO cells. • hα1a receptor: The cloning of the human α1a cDNA was accomplished first by screening a human prostate cDNA library (Clontech), from which a portion of the coding region was obtained. This DNA fragment was then used to screen a human leukocyte genomic library (Clontech), and the rest of the coding sequence was obtained. Later these two fragments were spliced together. The entire coding sequence was then fully sequenced including matching PCR sequence with original genomic coding sequence, thus ensuring splice sites were joined correctly (Schwinn et al., 1995). Once sequenced, the gene was subcloned into the expression vector pcDNA3 (Invitrogen). Plasmid DNA was then used for transfection into CHO cells and G418 resistant clones were isolated. A clone expressing high levels of the hα1a receptor (as determined by mRNA and receptor binding data) was chosen and pharmacologically characterized. • Culture Media Ingredients for Adherent α1a expressing CHO Culture: • A. HAM's F-12 (Celigro) • B. 10% 0.2 micron filtered Fetal Bovine Serum (FBS)(Celigro) • C. 1% 0.2 micron filtered Penicillin-Streptomycin (Celigro) • D. G418 0.2 micron filtered (Geneticin 400 μg/ml)(Celigro) • Cells are cultured using established methods and procedures in either 150×25 mm culture plates (scale up to 100 plates) or a combination of these plates and 70 roller bottles. One culturing/harvest cycle typically requires 2 weeks and yields between 100-400 mg protein. Plates or bottles are incubated at 37° C.+5% CO2. • Storage: Cells are harvested by mechanical scraping, washed using PBS, collected in 250 ml Corning polypropylene centrifuge tubes, spun down (1500 RPM) and resuspended in dH2O 10% DMSO (final volume per harvest is approximately 50 ml). Protein determination is made using the Biorad DC Assay Kit. Finally, the appropriate volume is aliquoted into a 2 ml Corning Cryovial (10 mg/1-1.5 ml) which is stored at −80° C.
• Assay Requirement: 0.5 cryovials per 96 well plate (assay volume=200 μl/well) • [^3H]-Ligand: [7-methoxy-^3H]-Prazosin: 1.0 nM (NEN, NET-823) • 70-87 Ci/mmol • Materials: Phentolamine mesylate (Research Biochemicals Int. #P-131) • 96 well flat bottom plates (Beckman) • Unifilter GF/B Plate (Packard) • Polyethylenimine (Sigma #P-3134) • TomTec or Packard Filtermate 196 Cell Harvesters • Packard TopCount Scintillation Counter • Buffers: A: 50 mM Tris HCl; 0.1% ascorbate, pH 7.7 (incubation buffer) • B: 50 mM Tris HCl; pH 7.7 (wash buffer) • Procedure: Assay additions are as follows (in the order indicated): • Total Binding=50 μl buffer A+50 μl [^3H]prazosin+100 μl membrane • Nonsp. Bd.=50 μl 10 μM phentolamine+50 μl [^3H]prazosin+100 μl membrane • Test Cpd.=50 μl compound+50 μl [^3H]prazosin+100 μl membrane • Compounds to be evaluated are weighed out to yield a 10 mM stock solution in DMSO in a 24 well polystyrene plate. This is diluted to a 0.5 mM stock in dH2O, Serial dilutions in Buffer A are made from which 50 μl additions to the plate are made in duplicate in order to achieve the final concentrations desired. Typically, one 96 well plate is used to evaluate 11 compounds at 4 concentrations (10^−6-10^−9 M) in duplicate. Total binding and nonspecific binding are determined in quadruplicate. […]

[2] = biological target: T2, cloned human dopamine D3 receptors (Homo sapiens, UniProt P35462); experiment: [N-Methyl-3H]Spiroperidol binding to cloned human dopamine D3 receptors
T2 construct: expressed in transfected cells; membrane homogenate
T2 sequence (P35462 whole entry): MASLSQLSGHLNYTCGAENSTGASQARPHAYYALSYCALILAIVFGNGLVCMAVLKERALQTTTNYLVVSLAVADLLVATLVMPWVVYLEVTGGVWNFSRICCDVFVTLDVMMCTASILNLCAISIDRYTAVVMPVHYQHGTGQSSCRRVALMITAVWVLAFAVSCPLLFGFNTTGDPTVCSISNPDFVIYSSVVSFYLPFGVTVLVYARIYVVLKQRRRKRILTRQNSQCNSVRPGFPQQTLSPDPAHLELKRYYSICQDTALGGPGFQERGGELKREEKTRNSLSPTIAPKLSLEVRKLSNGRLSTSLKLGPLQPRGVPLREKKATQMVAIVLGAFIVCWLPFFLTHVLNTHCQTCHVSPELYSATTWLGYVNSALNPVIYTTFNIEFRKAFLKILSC
Method in brief: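 Stably transfected CHO cells expressing cloned human D3 receptor were used as membranes homogenized in 10% DMSO. Ligand was [N-methyl-3H]spiroperidol displacement.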

| Structure (SMILES) | Ki ([2]; read-out: D3 Ki) | other results |
| --- | --- | --- |
| CC1(C)CCCN(C(=O)CCCN2CCN(c3csc4cc(F)ccc34)CC2)C1 (racemic) [compound 826857] | – | Ki [1]: 9.82 nM |
| CN(C)C1CCN(C(=O)CCCN2CCN(c3csc4cc(F)ccc34)CC2)C1 (stereo not drawn) [compound 826863] | – | Ki [1]: 32.2 nM |
| O=C(NCCCn1cnc2ccccc21)[C@@H]1C[C@H]1CN1CCN(c2csc3cc(C(F)(F)F)ccc23)CC1 [A002243384] | 133 nM | – |
| Cc1ccc(CN2CCC(NC(=O)C3CC3CN3CCC(c4noc5ccsc45)CC3)CC2)cc1 (racemic) [compound 831992] | 4.81 nM | – |
| O=C(C1CC1CN1CCC(c2noc3ccsc23)CC1)N1CCC(n2c(=O)[nH]c3ccccc32)CC1 (racemic) [compound 831737] | 1.25 nM | – |
| O=C(NC1CCN(Cc2ccc(Cl)cc2)CC1)C1CC1CN1CCC(c2noc3ccsc23)CC1 (racemic) [compound 831997] | 3.55 nM | – |
| CC(C)(C)OC(=O)N1CCCC(CNC(=O)[C@@H]2C[C@H]2CN2CCN(c3csc4cc(C(F)(F)F)ccc34)CC2)C1 (mixture of isomers) [compound 832501] | 41.4 nM | – |
| O=C([C@@H]1C[C@H]1CN1CCN(c2csc3cc(C(F)(F)F)ccc23)CC1)N1CCC(Cn2ccnc2)CC1 [compound 831958] | 13 nM | – |
| CCN(C(=O)CCCN1CCN(c2csc3cc(C(F)(F)F)ccc23)CC1)C1CCCCC1 [compound 826809] | – | Ki ([2]; read-out: d3Ki): 71 nM |
| O=C([C@@H]1C[C@H]1CN1CCC(c2noc3ccsc23)CC1)N1CCC(n2c(=O)[nH]c3ccccc32)CC1 [compound 832531] | 67.7 nM | – |
| Cn1nc(C2CCN(C[C@@H]3C[C@H]3C(=O)NCCCn3ccnc3)CC2)c2sccc21 [A002436291, 2R-[4-(1-Methyl-1H-thieno[3,2-c]pyrazol-3-yl)-piperidin-1-ylmethyl]-1R-cycloproanecarboxylic acid (3-imidazol-1-yl-propyl)-amide] | 0.629 nM | – |
| O=C(NCCc1cccc(F)c1)C1CC1CN1CCC(c2noc3ccsc23)CC1 (racemic) [compound 831801] | 11.2 nM | – |
